Reference: ChEMBL document CHEMBL1127134, “Synthesis and antibacterial activity of (1R,5R,6R)-2-tert-butyl-6-(1-hydroxyethyl)oxapenem-3-carboxylic acid” (1993)
Converted amounts (≈) assume the structure as drawn.

Columns and labels:
Type in all cases: functional
Staphylococcus aureus [1] = assay: Minimum inhibitory concentration required for the antibacterial activity against Staphylococcus aureus 90 Innsbruck
Staphylococcus aureus [2] = assay: Minimum inhibitory concentration required for the antibacterial activity against Staphylococcus aureus 21b Belgium
Staphylococcus aureus [3] = assay: Minimum inhibitory concentration required for the antibacterial activity against Staphylococcus aureus 1756; conditions: Staphylococcus aureus; read-out: MIC
Staphylococcus aureus [4] = assay: Minimum inhibitory concentration required for the antibacterial activity against Staphylococcus aureus 41h Belgium
Staphylococcus aureus [5] = assay: Minimum inhibitory concentration required for the antibacterial activity against Staphylococcus aureus 79B Innsbruck
Staphylococcus aureus [6] = assay: Minimum inhibitory concentration required for the antibacterial activity against Staphylococcus aureus 25085
Staphylococcus aureus [7] = assay: Minimum inhibitory concentration required for the antibacterial activity against Staphylococcus aureus 25470
Staphylococcus aureus [8] = assay: Minimum inhibitory concentration required for the antibacterial activity against Staphylococcus aureus 48N Munchen
Staphylococcus aureus [9] = assay: Minimum inhibitory concentration required for the antibacterial activity against Staphylococcus aureus 25697
Staphylococcus aureus [10] = assay: Minimum inhibitory concentration required for the antibacterial activity against Staphylococcus aureus 13N Munchen
Staphylococcus aureus [11] = assay: Minimum inhibitory concentration required for the antibacterial activity against Staphylococcus aureus 25464
Staphylococcus aureus [12] = assay: Minimum inhibitory concentration required for the antibacterial activity against Staphylococcus aureus 25768
Staphylococcus aureus [13] = assay: Minimum inhibitory concentration required for the antibacterial activity against Staphylococcus aureus 25463
Staphylococcus aureus [14] = assay: Minimum inhibitory concentration required for the antibacterial activity against Staphylococcus aureus 17N Munchen
Staphylococcus aureus [15] = assay: Minimum inhibitory concentration required for the antibacterial activity against Staphylococcus aureus 77 Innsbruck
Staphylococcus aureus [16] = assay: Minimum inhibitory concentration required for the antibacterial activity against Staphylococcus aureus 4978 Israel
Staphylococcus aureus [17] = assay: Minimum inhibitory concentration required for the antibacterial activity against Staphylococcus aureus 86 Innsbruck
Bacteroides fragilis [18] = assay: Minimum inhibitory concentration required for the antibacterial activity against Bacillus fragilis 06688
[19] = test system: Peptostreptococcus anaerobius; assay: Minimum inhibitory concentration required for the antibacterial activity against Peptostrept. anaer. DSM 20357
Bacteroides fragilis [20] = assay: Minimum inhibitory concentration required for the antibacterial activity against Bacillus fragilis 2034/35 Kr 43
Thomasclavelia ramosa = assay: Minimum inhibitory concentration required for the antibacterial activity against Clostridium ramosum DSM 1402
Clostridium perfringens [21] = assay: Minimum inhibitory concentration required for the antibacterial activity against Clostridium perfringens 24071
Anaerococcus prevotii = assay: Minimum inhibitory concentration required for the antibacterial activity against Peptococcus prevotii DSM 20548
[22] = test system: Peptostreptococcus anaerobius; assay: Minimum inhibitory concentration required for the antibacterial activity against Peptostrept. anaer. 222 I/82
[23] = test system: Fusobacterium necrophorum; assay: Minimum inhibitory concentration required for the antibacterial activity against Sphaerophorus necrophorus Kr
Bacteroides fragilis [24] = assay: Minimum inhibitory concentration required for the antibacterial activity against Bacillus fragilis 4661 Kr
Bacteroides fragilis [25] = assay: Minimum inhibitory concentration required for the antibacterial activity against Bacillus fragilis Kr 1 TV
Bacteroides fragilis [26] = assay: Minimum inhibitory concentration required for the antibacterial activity against Bacillus fragilis Kr II
[27] = test system: Bacteroides thetaiotaomicron; assay: Minimum inhibitory concentration required for the antibacterial activity against Bacillus thetaiotaomicron DSM 2079
[28] = test system: Prevotella melaninogenica; assay: Minimum inhibitory concentration required for the antibacterial activity against Bacillus melaninogenicus Heidelberg
Clostridium butyricum = assay: Minimum inhibitory concentration required for the antibacterial activity against Clostridium butyricum
Bacteroides fragilis [29] = assay: Minimum inhibitory concentration required for the antibacterial activity against Bacillus fragilis GA I - 0558 Japan
Bacteroides fragilis [30] = assay: Minimum inhibitory concentration required for the antibacterial activity against Bacillus fragilis L 1168 Italien
[31] = test system: Bacteroides thetaiotaomicron; assay: Minimum inhibitory concentration required for the antibacterial activity against Bacillus thetaiotaomicron 235 Munchen
Clostridium perfringens [32] = assay: Minimum inhibitory concentration required for the antibacterial activity against Clostridium perfringens 1024027
[33] = test system: Parabacteroides distasonis; assay: Minimum inhibitory concentration required for the antibacterial activity against Bacillus distasonis Heidelberg
[34] = test system: Peptoniphilus asaccharolyticus; assay: Minimum inhibitory concentration required for the antibacterial activity against Peptococcus asacchar. DSM 20463
[35] = test system: Peptostreptococcus anaerobius; assay: Minimum inhibitory concentration required for the antibacterial activity against Peptostrept. anaer. Kr II
Fusobacterium nucleatum = assay: Minimum inhibitory concentration required for the antibacterial activity against Fusobacterium nucleatum DSM 20482
Bacteroides fragilis [36] = assay: Minimum inhibitory concentration required for the antibacterial activity against Bacillus fragilis 010848
Bacteroides fragilis [37] = assay: Minimum inhibitory concentration required for the antibacterial activity against Bacillus fragilis ES 25
[38] = test system: Peptostreptococcus anaerobius; assay: Minimum inhibitory concentration required for the antibacterial activity against Peptostrept. anaer. Kr I
Clostridium septicum = assay: Minimum inhibitory concentration required for the antibacterial activity against Clostridium septicum
[39] = test system: Parabacteroides distasonis; assay: Minimum inhibitory concentration required for the antibacterial activity against Bacillus distasonis Kr
[40] = test system: Prevotella melaninogenica; assay: Minimum inhibitory concentration required for the antibacterial activity against Bacillus melaninogenicus Kr
Bacteroides fragilis [41] = assay: Minimum inhibitory concentration required for the antibacterial activity against Bacillus fragilis 4891/91 Kr
Phocaeicola vulgatus = assay: Minimum inhibitory concentration required for the antibacterial activity against Bacillus valgatus Kr III
Bacteroides fragilis [42] = assay: Minimum inhibitory concentration required for the antibacterial activity against Bacillus fragilis 1560 I/82
Clostridium perfringens [43] = assay: Minimum inhibitory concentration required for the antibacterial activity against Clostridium perfringens 24072
Bacteroides fragilis [44] = assay: Minimum inhibitory concentration required for the antibacterial activity against Bacillus fragilis DSM 2151
Clostridium perfringens [45] = assay: Minimum inhibitory concentration required for the antibacterial activity against Clostridium perfringens DSM 756
Clostridium sporogenes = assay: Minimum inhibitory concentration required for the antibacterial activity against Clostridium sporogenes

SMILES: Cc1onc(-c2ccccc2)c1C(=O)N[C@@H]1C(=O)N2[C@@H]1SC(C)(C)[C@@H]2C(=O)O [OXACILLIN]
- MIC (Staphylococcus aureus [1]): > 100 µg/mL
- MIC (Staphylococcus aureus [2]): > 100 µg/mL
- MIC (Staphylococcus aureus [3]): 50 µg/mL (≈ 125 µM)
- MIC (Staphylococcus aureus [4]): > 100 µg/mL
- MIC (Staphylococcus aureus [5]): 50 µg/mL (≈ 125 µM)
- MIC (Staphylococcus aureus [6]): 3.12 µg/mL (≈ 7.77 µM)
- MIC (Staphylococcus aureus [7]): 100 µg/mL (≈ 249 µM)
- MIC (Staphylococcus aureus [8]): ≤ 0.78 µg/mL
- MIC (Staphylococcus aureus [9]): 1.56 µg/mL (≈ 3.89 µM)
- MIC (Staphylococcus aureus [10]): > 100 µg/mL
- MIC (Staphylococcus aureus [11]): > 100 µg/mL
- MIC (Staphylococcus aureus [12]): 6.25 µg/mL (≈ 15.6 µM)
- MIC (Staphylococcus aureus [13]): 1.56 µg/mL (≈ 3.89 µM)
- MIC (Staphylococcus aureus [14]): 1.56 µg/mL (≈ 3.89 µM)
- MIC (Staphylococcus aureus [15]): 100 µg/mL (≈ 249 µM)
- MIC (Staphylococcus aureus [16]): ≤ 0.78 µg/mL
- MIC (Staphylococcus aureus [17]): 100 µg/mL (≈ 249 µM)

SMILES: CO/N=C(\C(=O)N[C@@H]1C(=O)N2C(C(=O)O)=C(COC(C)=O)CS[C@H]12)c1csc(N)n1 [CEFOTAXIME]
- MIC (Bacteroides fragilis [18]): 2 µg/mL (≈ 4.39 µM)
- MIC [19]: 16 µg/mL (≈ 35.1 µM)
- MIC (Bacteroides fragilis [20]): > 128 µg/mL
- MIC (Thomasclavelia ramosa): 2 µg/mL (≈ 4.39 µM)
- MIC (Clostridium perfringens [21]): 2 µg/mL (≈ 4.39 µM)
- MIC (Anaerococcus prevotii): 8 µg/mL (≈ 17.6 µM)
- MIC [22]: 0.5 µg/mL (≈ 1.1 µM)
- MIC [23]: 1 µg/mL (≈ 2.2 µM)
- MIC (Bacteroides fragilis [24]): 4 µg/mL (≈ 8.78 µM)
- MIC (Bacteroides fragilis [25]): 1 µg/mL (≈ 2.2 µM)
- MIC (Bacteroides fragilis [26]): 2 µg/mL (≈ 4.39 µM)
- MIC [27]: 128 µg/mL (≈ 281 µM)
- MIC [28]: 2 µg/mL (≈ 4.39 µM)
- MIC (Clostridium butyricum): 1 µg/mL (≈ 2.2 µM)
- MIC (Bacteroides fragilis [29]): 8 µg/mL (≈ 17.6 µM)
- MIC (Bacteroides fragilis [30]): 4 µg/mL (≈ 8.78 µM)
- MIC [31]: 128 µg/mL (≈ 281 µM)
- MIC (Clostridium perfringens [32]): ≤ 0.25 µg/mL
- MIC [33]: 2 µg/mL (≈ 4.39 µM)
- MIC [34]: ≤ 0.25 µg/mL
- MIC [35]: ≤ 0.25 µg/mL
- MIC (Fusobacterium nucleatum): 0.5 µg/mL (≈ 1.1 µM)
- MIC (Bacteroides fragilis [36]): 16 µg/mL (≈ 35.1 µM)
- MIC (Bacteroides fragilis [37]): 4 µg/mL (≈ 8.78 µM)
- MIC [38]: 32 µg/mL (≈ 70.3 µM)
- MIC (Clostridium septicum): 128 µg/mL (≈ 281 µM)
- MIC [39]: 2 µg/mL (≈ 4.39 µM)
- MIC [40]: 2 µg/mL (≈ 4.39 µM)
- MIC (Bacteroides fragilis [41]): 4 µg/mL (≈ 8.78 µM)
- MIC (Phocaeicola vulgatus): 2 µg/mL (≈ 4.39 µM)
- MIC (Bacteroides fragilis [42]): 2 µg/mL (≈ 4.39 µM)
- MIC (Clostridium perfringens [43]): 0.5 µg/mL (≈ 1.1 µM)
- MIC (Bacteroides fragilis [44]): 4 µg/mL (≈ 8.78 µM)
- MIC (Clostridium perfringens [45]): ≤ 0.25 µg/mL
- MIC (Clostridium sporogenes): 0.5 µg/mL (≈ 1.1 µM)

SMILES: CC1(C)S[C@@H]2[C@H](NC(=O)[C@H](NC(=O)N3CCN(S(C)(=O)=O)C3=O)c3ccccc3)C(=O)N2[C@H]1C(=O)O [MEZLOCILLIN]
- MIC (Staphylococcus aureus [1]): > 100 µg/mL
- MIC (Staphylococcus aureus [2]): 50 µg/mL (≈ 92.7 µM)
- MIC (Staphylococcus aureus [3]): 50 µg/mL (≈ 92.7 µM)
- MIC (Staphylococcus aureus [4]): 3.12 µg/mL (≈ 5.78 µM)
- MIC (Staphylococcus aureus [5]): 50 µg/mL (≈ 92.7 µM)
- MIC (Staphylococcus aureus [6]): 50 µg/mL (≈ 92.7 µM)
- MIC (Staphylococcus aureus [7]): 25 µg/mL (≈ 46.3 µM)
- MIC (Staphylococcus aureus [8]): 12.5 µg/mL (≈ 23.2 µM)
- MIC (Staphylococcus aureus [9]): 25 µg/mL (≈ 46.3 µM)
- MIC (Staphylococcus aureus [10]): 50 µg/mL (≈ 92.7 µM)
- MIC (Staphylococcus aureus [11]): 100 µg/mL (≈ 185 µM)
- MIC (Staphylococcus aureus [12]): 25 µg/mL (≈ 46.3 µM)
- MIC (Staphylococcus aureus [13]): 12.5 µg/mL (≈ 23.2 µM)
- MIC (Staphylococcus aureus [14]): 12.5 µg/mL (≈ 23.2 µM)
- MIC (Staphylococcus aureus [15]): 100 µg/mL (≈ 185 µM)
- MIC (Staphylococcus aureus [16]): 3.12 µg/mL (≈ 5.78 µM)
- MIC (Staphylococcus aureus [17]): 50 µg/mL (≈ 92.7 µM)

SMILES: CO[C@@]1(NC(=O)Cc2cccs2)C(=O)N2C(C(=O)O)=C(COC(N)=O)CS[C@@H]21 [CEFOXITIN]
- MIC (Staphylococcus aureus [1]): 100 µg/mL (≈ 234 µM)
- MIC (Staphylococcus aureus [2]): ≤ 0.78 µg/mL
- MIC (Staphylococcus aureus [3]): 50 µg/mL (≈ 117 µM)
- MIC (Staphylococcus aureus [4]): 1.56 µg/mL (≈ 3.65 µM)
- MIC (Staphylococcus aureus [5]): 25 µg/mL (≈ 58.5 µM)
- MIC (Staphylococcus aureus [6]): 12.5 µg/mL (≈ 29.2 µM)
- MIC (Staphylococcus aureus [7]): > 100 µg/mL
- MIC (Staphylococcus aureus [8]): 6.25 µg/mL (≈ 14.6 µM)
- MIC (Staphylococcus aureus [9]): 12.5 µg/mL (≈ 29.2 µM)
- MIC (Staphylococcus aureus [10]): > 100 µg/mL
- MIC (Staphylococcus aureus [11]): 50 µg/mL (≈ 117 µM)
- MIC (Staphylococcus aureus [12]): 12.5 µg/mL (≈ 29.2 µM)
- MIC (Staphylococcus aureus [13]): 1.56 µg/mL (≈ 3.65 µM)
- MIC (Staphylococcus aureus [14]): 12.5 µg/mL (≈ 29.2 µM)
- MIC (Staphylococcus aureus [15]): 25 µg/mL (≈ 58.5 µM)
- MIC (Staphylococcus aureus [16]): 1.56 µg/mL (≈ 3.65 µM)
- MIC (Staphylococcus aureus [17]): 12.5 µg/mL (≈ 29.2 µM)
